# Reference: patent US10092620B2, “Uses of cyclic peptides for treating and preventing atherosclerosis” (THE SCRIPPS RESEARCH INSTITUTE, priority 2013, dated 2018)
# Non-standard residues stand in square brackets, D forms with d. Residues, ends and D or L forms follow the SMILES beside them.
# Tested on: human plasma HDL
# Experiment: human plasma HDL remodeling (NDGGE, immunoblot for human apoA-I)
# Type: biochemical
# Settings: human plasma in vitro; Western blot for apoA-I; FIGS. 1 and 2a
# Excerpt: As an initial phase of investigation, we evaluated in vitro the effectiveness of our cyclic D,L-α-peptides to remodel mature human plasma HDLs into lipid-poor HDL (FIG. 1 and FIG. 2a). Lipid-poor HDL particles are key acceptors of cholesterol in reverse cholesterol transport and are thus crucial for combating atherosclerosis. In fact, with respect to the cholesterol efflux capacity of human sera, the levels of lipid-poor HDL correlate much better than the levels of HDL-cholesterol or apoA-I. Briefly, our assay involved incubating human plasma with a peptide, after which the plasma sample was subjected to non-denaturing gradient gel electrophoresis (NDGGE) to separate the HDL subspecies and then immunoblotted for human apoA-I. The ranked activities of the cyclic D,L-α-peptides in promoting formation of lipid-poor HDL are shown in FIG. 1. It should be noted that there are inherent variabilities associated with electrophoretic transfer, staining, and densitometric quantitation, so the peptide ranking should be viewed as an approximate guide to relative plasma HDL remodeling efficacy. Nevertheless, the rankings were similar overall whether the panel was assayed by using peptide stock solutions prepared in 10% sucrose/H2O (FIGS. 1 and 2a) or peptide stock solutions prepared in 1:1 DMSO/H2O. From these preliminary structure-activity relationship (SAR) studies, we identified a pronounced sequence dependence for efficient plasma HDL remodeling (vide infra).
# Human plasma remodeling: All procedures involving human samples were approved by TSRI Institutional Review Board. Procedures were modified from those reported in Troutt et al., J. Lipid Res. 49, 581-587, 2008. Blood samples from normal healthy human donors were obtained from TSRI Normal Blood Donor Program. EDTA-anticoagulated whole blood was centrifuged at 1500×g for 15 min within 1 h of being drawn from the donor. The plasma layer was aliquoted and used immediately or frozen at −80° C. for future use. Peptide stock solutions were prepared at ˜15 mM peptide in 50% DMSO for initial screenings, or at ˜2 mM peptide in 10% sucrose for remodeling assays at lower concentrations (FIG. 1) and cholesterol efflux assays (FIG. 2). Plasma samples (30 μL) were treated with peptide stocks, and the samples were incubated at 37° C. for 0.5-1 h, and then quenched by adding 270 μL of 50% sucrose (1:9 dilution). Samples were mixed with 6× native loading buffer (125 mM tris, pH 6.8, 0.02% bromophenol, 20% glycerol), of which 6 μL was loaded onto a 4-20% polyacrylamide gel. The molecular weight ladder used was High Molecular Weight Calibration Kit (Amersham Biosciences, #17-0445-01). […] The films were scanned and quantified by densitometry using the program LabWorks (v. 4.0.0.8). […]
compound,measurement,value
"CC(C)C[C@@H]1NC(=O)[C@@H](Cc2c[nH]c3ccccc23)NC(=O)[C@H](CCCNC(=N)N)NC(=O)[C@@H](CCC(=O)O)NC(=O)[C@H](CCC(N)=O)NC(=O)[C@@H](CCC(=O)O)NC(=O)[C@H](CCCNC(=N)N)NC(=O)[C@@H](Cc2c[nH]c3ccccc23)NC1=O [SEQ ID NO:1, c[wLwReQeR]] (cyclo([dW]L[dW]R[dE]Q[dE]R))",plasma HDL remodeling to lipid-poor HDL (in words),considerably more active than any of four analogs
